pIC50: −log10 of the molar value.
What follows are compounds tested against T1, human histamine H3 receptor (Homo sapiens, UniProt Q9Y5N1) (assay: H3 GTPγS assay (SPA method), histamine H3 in vitro assay). Settings: GTPγ[35S] binding to membranes of cells expressing human H3; antagonist mode with R-γ-Me-Histamine at EC80 (30 nM); in one embodiment HCl salts tested; read-out: Potency (functional potency as indicated by IC50).
T1 construct: host or cells: cells expressing the human H3 receptor
Type: biochemical
Experimental: H3 GTPγS assay (SPA method) was performed at EuroScreen (Belgium, ES-392-C) using conventional methods. Briefly, cells expressing the human histamine H3 receptor were homogenized in 15 mM Tris-HCl pH 7.5, 2 mM MgCl2, 0.3 mM EDTA, and 1 mM EGTA. Membranes were washed twice in the above tris buffer, collected by centrifugation (40,000×g, 25 min), and re-suspended in 75 mM Tris-HCl pH 7.5, 12.5 mM MgCl2, 0.3 mM EDTA, 1 mM EGTA, and 250 mM sucrose. Membranes were frozen in liquid nitrogen until use. On the day of the assay, membranes were thawed and diluted in assay buffer (20 mM HEPES pH 7.4, 100 mM NaCl, 10 μg/ml saponin, 1 mM MgCl2) to give 500 μg/ml and mixed (v/v) with GDP in assay buffer for a final GDP concentration of 10 μM and incubated on ice for at least 15 min. PVT-WGA beads (Amersham, RPNQ001) were diluted in assay buffer at 50 mg/mL and mixed with GTPγ[^35S] (Amersham, SJ1308) diluted in assay buffer to give ˜25,000 dpm/10 μL and mixed vol/vol just before the start of the reaction. The reaction was started by adding 50 μL of test compound, 20 μL of the membranes:GDP mix, 10 μL of buffer, and 20 μL of the GTPγ[^35S]:beads mix in a 96 well plate Optiplate™ (PerkinElmer, 6005299) covered with topseal (TopCount™, PerkinElmer), mixed with an orbital shaker for 2 min, incubated for 1 hour at room temperature, centrifuged for 10 min at 2000 rpm, incubated for 1 h at room temperature, and counted for 1 min in a TopCount™ reader (PerkinElmer). Dose response curves and IC50 values (concentration to inhibit the reaction by 50%) were calculated by nonlinear regression using XLfit software (IDBS).
For antagonists testing, 10 μL of a reference agonist (R-γ-Me-Histamine) instead of 10 μL buffer was added at a concentration corresponding to the EC80 (30 nM). Control ligands were R-γ-Me-Histamine (Tocris, 0569), Imetit (Sigma, I-135), Thioperamide (Tocris, 0644), and Clobenpropit (Tocris, 0754) diluted in assay buffer.
The compounds provided herein were tested in the histamine H3 in vitro assay. In one embodiment, the respective HCl salts of the compounds provided herein were prepared using standard chemical procedures and tested in the histamine H3 in vitro assay.

T1 sequence (Q9Y5N1 whole entry): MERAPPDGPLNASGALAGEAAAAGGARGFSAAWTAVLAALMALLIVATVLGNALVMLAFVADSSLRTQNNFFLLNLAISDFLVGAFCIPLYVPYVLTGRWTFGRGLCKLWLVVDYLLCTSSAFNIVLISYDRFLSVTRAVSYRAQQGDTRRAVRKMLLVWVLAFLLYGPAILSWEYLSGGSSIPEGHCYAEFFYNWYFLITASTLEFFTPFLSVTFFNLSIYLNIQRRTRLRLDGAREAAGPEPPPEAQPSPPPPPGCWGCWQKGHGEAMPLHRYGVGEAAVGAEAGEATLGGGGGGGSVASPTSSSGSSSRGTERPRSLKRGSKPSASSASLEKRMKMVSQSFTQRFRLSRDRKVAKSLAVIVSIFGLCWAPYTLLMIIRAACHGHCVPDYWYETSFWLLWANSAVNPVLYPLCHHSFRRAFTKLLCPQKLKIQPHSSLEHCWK

| pIC50 | SMILES |
| --- | --- |
| ≥ 6.00 | O=c1cccnn1-c1ccc2c(c1)nc1n2CCN(C2CCC2)CC1 [Compound 71, 2-(3-cyclobutyl-2,3,4,5-tetrahydro-1H-[1,4]diazepino[1,7-a]benzimidazol-9-yl)pyridazin-3(2H)-one] |
| ≥ 7.00 | N#Cc1ccc(-c2cnc3c(c2)nc2n3CCN(C3CCC3)CC2)cc1 [Compound 237, 4-(7-aza-3-cyclobutyl-2,3,4,5-tetrahydro-1H-[1,4]diazepino[1,7-a]benzimidazol-9-yl)benzonitrile] |
| ≥ 7.00 | Fc1ccc(CNc2ccc3c(c2)nc2n3CCN(C3CCC3)CC2)cc1 [Compound 62] |
| ≥ 7.00 | c1ccc2c(c1)cnn2-c1ccc2c(c1)nc1n2CCN(C2CCC2)CC1 [Compound 69] |
| ≥ 8.00 | NCc1ccc(-c2ccc3c(c2)nc2n3CCN(C3CCC3)CC2)cc1 [Compound 1, 3-cyclobutyl-9-(4-(aminomethyl)phenyl)-2,3,4,5-tetrahydro-1H-[1.4]diazepino[1,7-a]benzimidazole] |
| ≤ 6.00 | NCc1ccc(-c2ccc3c(c2)nc2n3CCN(Cc3cnc[nH]3)CC2)cc1 [Compound 17] |
| ≥ 8.00 | c1cc2c(cc1N1CCN(C3CCOC3)CC1)nc1n2CCN(C2CCC2)CC1 (racemic) [Compound 101, rac-3-cyclobutyl-9-(4-(tetrahydrofuran-3-yl)piperazin-1-yl)-2,3,4,5-tetrahydro-1H-[1,4]diazepino[1,7-a]benzimidazole] |
| ≥ 7.00 | c1cc2ccc(-c3ccc4c(c3)nc3n4CCN(C4CCC4)CC3)nc2[nH]1 [Compound 196, 3-cyclobutyl-8-(1H-pyrrolo[2,3-b]pyridin-6-yl)-2,3,4,5-tetrahydro-1H-benzo[4,5]imidazo[1,2-d][1,4]diazepine] |
| ≥ 6.00 | N#Cc1ccc(-c2ccc3nc4n(c3c2)CCN(C2CCC2)CC4)cc1 [Compound 41] |
| ≥ 7.00 | CN(Cc1ccc2c(c1)nc1n2CCN(C2CCC2)CC1)C(=O)OCc1ccccc1 [Compound 142, benzyl((3-cyclobutyl-2,3,4,5-tetrahydro-1H-benzo[4,5]imidazo[1,2-d][1,4]diazepin-8-yl)methyl)(methyl)carbamate] |
| ≤ 6.00 | O=C1c2cc3nc4n(c3cc2C(=O)N1Cc1ccccc1)CCN(C1CCC1)CC4 [Compound 143, 2-benzyl-8-cyclobutyl-7,8,9,10-tetrahydro-[1,4]diazepino[1′,7′:1,2]imidazo[4,5-f]isoindole-1,3(2H,6H)-dione] |
| ≥ 6.00 | c1cc2nc3n(c2cc1-c1cn[nH]c1)CCN(C1CCC1)CC3 [Compound 49, 3-cyclobutyl-9-(1H-pyrazol-4-yl)-2,3,4,5-tetrahydro-1H-[1,4]diazepino[1,7-a]benzimidazole] |
| ≥ 6.00 | O=C(c1ccc2nc3n(c2c1)CCN(C1CCC1)CC3)N1CCCC1 [Compound 86] |
| ≥ 7.00 | c1nc2ccc(-c3ccc4c(c3)nc3n4CCN(C4CCC4)CC3)cn2n1 [Compound 203, 8-([1,2,4]triazolo[1,5-a]pyridin-6-yl)-3-cyclobutyl-2,3,4,5-tetrahydro-1H-benzo[4,5]imidazo[1,2-d][1,4]diazepine] |
| ≥ 8.00 | CNC(=O)c1ccc(Oc2ccc3c(c2)nc2n3CCN(C3CCC3)CC2)nc1 [Compound 50, 6-(3-cyclobutyl-2,3,4,5-tetrahydro-1H-[1,4]diazepino[1,7-a]benzimidazol-9-yloxy)-N-methylnicotinamide] |
| ≥ 8.00 | FC1CCCN(c2ccc3c(c2)nc2n3CCN(C3CCC3)CC2)C1 (stereo not drawn) [Compound 180, 3-cyclobutyl-8-(3-fluoropiperidin-1-yl)-2,3,4,5-tetrahydro-1H-benzo[4,5]imidazo[1,2-d][1,4]diazepine] |
| ≥ 7.00 | CC(C1CCC1)N1CCc2nc3cc(-c4ccc(C#N)cc4)ccc3n2CC1 (stereo not drawn) [Compound 6] |

| pIC50 | SMILES |
| --- | --- |
| ≥ 8.00 | c1cc2c(cc1CN1CCCC1)nc1n2CCN(C2CCC2)CC1 [Compound 75] |
| ≥ 7.00 | FC1CCN(Cc2ccc3c(c2)nc2n3CCN(C3CCC3)CC2)C1 (stereo not drawn) [Compound 165, 3-cyclobutyl-8-((3-fluoropyrrolidin-1-yl)methyl)-2,3,4,5-tetrahydro-1H-benzo[4,5]imidazo[1,2-d][1,4]diazepine] |
| ≥ 8.00 | CN1CCN(c2cnc(-c3ccc4c(c3)nc3n4CCN(C4CCC4)CC3)cn2)CC1 [Compound 92, 3-cyclobutyl-9-(5-(4-methylpiperazin-1-yl)pyrazin-2-yl)-2,3,4,5-tetrahydro-1H-[1,4]diazepino[1,7-a]benzimidazole] |
| ≥ 7.00 | c1cc(-c2ccc3c(c2)nc2n3CCN(C3CCC3)CC2)ncn1 [Compound 124, 3-cyclobutyl-8-(pyrimidin-4-yl)-2,3,4,5-tetrahydro-1H-benzo[4,5]imidazo[1,2-d][1,4]diazepine] |
| ≥ 7.00 | c1cc(-c2ccc3c(c2)nc2n3CCN(C3CCC3)CC2)nc(N2CCCC2)c1 [Compound 135, 3-cyclobutyl-8-(6-(pyrrolidin-1-yl)pyridin-2-yl)-2,3,4,5-tetrahydro-1H-benzo[4,5]imidazo[1,2-d][1,4]diazepine] |
| ≥ 7.00 | O=c1[nH]c2ccccc2n1-c1ccc2c(c1)nc1n2CCN(C2CCC2)CC1 [Compound 72, 1-(3-cyclobutyl-2,3,4,5-tetrahydro-1H-[1,4]diazepino[1,7-a]benzimidazol-9-yl)-1H-benzo[d]imidazol-2(3H)-one] |
| ≤ 6.00 | c1ncc(CN2CCc3nc4cc(-c5ccc6[nH]ccc6c5)ccc4n3CC2)[nH]1 [Compound 20] |
| ≤ 6.00 | N#Cc1ccc(-c2ccc3c(c2)nc2n3CCN(Cc3cnc[nH]3)CC2)cc1 [Compound 18] |
| ≥ 8.00 | Cc1ccc2nc(C)n(-c3ccc4c(c3)nc3n4CCN(C4CCC4)CC3)c2c1 [Compound 209, 3-cyclobutyl-8-(2,6-dimethyl-1H-benzo[d]imidazol-1-yl)-2,3,4,5-tetrahydro-1H-benzo[4,5]imidazo[1,2-d][1,4]diazepine] |
| ≥ 7.00 | Brc1ccc2nc3n(c2c1)CCN(C1CCC1)CC3 [Compound 40] |
| ≥ 6.00 | c1cnc(-c2cnc3c(c2)nc2n3CCN(C3CCC3)CC2)cn1 [Compound 236, 7-Aza-3-cyclobutyl-9-(pyrazin-2-yl)-2,3,4,5-tetrahydro-1H-[1,4]diazepino[1,7-a]benzimidazole] |
| ≥ 7.00 | Cn1cc2ccc(-c3ccc4c(c3)nc3n4CCN(C4CCC4)CC3)cc2n1 [Compound 206, 3-cyclobutyl-8-(2-methyl-2H-indazol-6-yl)-2,3,4,5-tetrahydro-1H-benzo[4,5]imidazo[1,2-d][1,4]diazepine] |
| ≥ 7.00 | c1cnc(N2Cc3cc4nc5n(c4cc3C2)CCN(C2CCC2)CC5)nc1 [Compound 148, 8-cyclobutyl-2-(pyrimidin-2-yl)-1,2,3,6,7,8,9,10-octahydro-[1,4]diazepino[1′,7′:1,2]imidazo[4,5-f]isoindole] |
| ≥ 8.00 | c1c2c(cc3c1nc1n3CCN(C3CCC3)CC1)CNC2 [Compound 145, 8-cyclobutyl-1,2,3,6,7,8,9,10-octahydro-[1,4]diazepino[1′,7′:1,2]imidazo[4,5-f]isoindole] |
| ≥ 8.00 | c1cc2c(cc1-c1cnc3[nH]ncc3c1)nc1n2CCN(C2CCC2)CC1 [Compound 223, 3-cyclobutyl-8-(1H-pyrazolo[3,4-b]pyridin-5-yl)-2,3,4,5-tetrahydro-1H-benzo[4,5]imidazo[1,2-d][1,4]diazepine] |
| ≥ 8.00 | c1cc2c(cc1-c1ccc3cncn3c1)nc1n2CCN(C2CCC2)CC1 [Compound 198, 3-cyclobutyl-8-(imidazo[1,5-a]pyridin-6-yl)-2,3,4,5-tetrahydro-1H-benzo[4,5]imidazo[1,2-d][1,4]diazepine] |

Source: patent publication US8404670B2 (Sunovion Pharmaceuticals Inc., priority 2009, dated 2013)
